In US12545637B2, “Extrahepatic targeted cationic lipid compound with high efficiency and low toxicity and its composition” (BEIJING YOUCARE KECHUANG PHARMACEUTICAL TECHNOLOGY CO., LTD., priority 2023, dated 2026):

Columns and labels:
[1] = Particle size and polydispersity index (PDI) of lipid nanoparticles by dynamic light scattering; format: physicochemical; conditions: for PDI: LNP formulation of the cationic lipid, 25° C.; for Particle size: LNP formulation of the cationic lipid/DSPC/cholesterol/DMG-PEG2000 49:10:39.5:1.5, 25° C.
Description: The particle size and polydispersity index (PDI) were determined by dynamic light scattering using Malvern laser particle size analyzer.
10 μL of the liposome solution was weighed, diluted to 1 mL with RNase-free deionized water, and added to the sample pool. Each sample was measured in triplicate. The measurement conditions were: […] scattering angle, and 25° C.

[2] = Detection of encapsulation efficiency, drug loading concentration and total RNA concentration (RiboGreen); format: physicochemical; conditions: LNP formulation prepared from the cationic lipid
Source text: Encapsulation efficiency is a key quality attribute of liposomes, which refers to the percentage of drug content encapsulated in the lipid bimolecular layer accounting for the total drug dose and can reflect the degree of drug encapsulation in liposomes. The Chinese Pharmacopoeia stipulates that the encapsulation efficiency should generally not be less than 80%.
The drug loading amount is the ratio of the amount of drug in the liposome to the total amount of drug and carrier in the liposome. The drug loading amount directly affects the clinical application dose of the drug. […] The drug loading concentration is proportional to the drug loading amount, and the relative proportion of the drug loading concentrations can represent the relative proportion of the drug loading amounts. The relative ratio of the total RNA concentrations may represent the relative ratio of the amounts of mRNA carried by the LNP formulations.
1×TE buffer, 0.1% Triton X-100 buffer, RiboGreen reagent (1: 200) and mRNA standard stock solution were prepared.
An appropriate amount of the sample was added to an appropriate amount of 1×TE buffer, and the mixture was diluted to obtain a solution containing approximately […] sample per 1 mL. Then the sample was added to a 96-well plate, and 50 μL of the diluted test sample or the mRNA standard stock solution was added to each well, then 1×TE buffer and 0.1% Triton X-100 buffer were added. The sample was incubated at 37° C. for 10 minutes, and 100 μL RiboGreen reagent (1:200) was added to each well of the test sample in the 96-well plate. The sample was centrifugated, and the data were read using a microplate reader, and processed.

293T cells [3] = assay: Fluorescent detection of Fluc-mRNA (cell transfection efficiency of LNP formulations); format: cell-based; conditions: for Relative light unit (RLU): LNP with 0.3 μg Fluc-mRNA, 96-well plate, 24 hours
Description: (§1) Seeding plate: The cells in the culture dish were digested and counted. Cells were spread in a 96-well plate at 10,000 cells per well and in a 12-well plate at 150,000 cells per well. Cells were cultured overnight until the cells adhered to the wall.
The corresponding reagents were added according to the instructions of the Gaussia Luciferase Assay Kit, and the fluorescence expression intensity of each well was detected by an IVIS fluorescence detection system.

293T cells [4] = assay: Cell survival rate assay (CCK-8); format: cell-based; conditions: LNP with 1.5 μg Fluc-mRNA, 24 hours, CCK-8
Description: Cell recovery and passage: 293T cells were recovered, cultured in a culture dish, and passaged to the required number of cells.
as §1
An LNP formulation containing 1.5 μg of Fluc-mRNA (prepared according to example 4, the carrier components of the LNP formulation were cationic lipid, neutral lipid, structured lipid and polymer-conjugated lipid at a molar ratio of 49:10:39.5:1.5, wherein the cationic lipid was listed in Table 1) and the formulation of Lipofectamine 3000 were added to the cell culture medium of a 96-well plate, and further cultivated for 24 hours. 10 μL of CCK-8 solution was then added to each well, and the culture plate was incubated in an incubator for 1 hour. The absorbance at 450 nm was measured by a microplate reader.

female BALB/C mice = assay: In vivo imaging in mice of Fluc-mRNA LNP formulations (mRNA expression and duration); conditions: Fluc-mRNA LNP intramuscular; for average radiation intensity, 6 h: 6 h after administration; for average radiation intensity, 24 h: 24 h after administration; for average radiation intensity, 48 h: 48 h after administration; for average radiation intensity, 7 d: 7 d after administration
Description: The LNP formulation (prepared according to Example 4) containing […] Fluc-mRNA was injected intramuscularly into female BALB/C mice aged 4-6 weeks and weighed 17-19 g, and the mice were intraperitoneally injected with fluorescent imaging substrate at specific time points after administration (6h, 24 h, 48h and 7d), where the mice were allowed to free move for 5 minutes, and then the average radiation intensity (corresponding to fluorescence expression intensity) of the protein expression of the mRNA carried by the LNP in the mice was detected by the IVIS Spectrum small animal in vivo imaging system.

Structure (SMILES) | PDI [1] | Particle size [1] | Drug loading concentration [2] | Encapsulation efficiency [2] | Total RNA concentration [2] | Relative light unit (RLU) (293T cells [3]) | Cell survival rate (293T cells [4]) | average radiation intensity, 6 h (female BALB/C mice) | average radiation intensity, 24 h (female BALB/C mice) | average radiation intensity, 48 h (female BALB/C mice) | average radiation intensity, 7 d (female BALB/C mice) | cell transfection efficiency, times that of YK-417 (293T cells [3]; ratio vs YK-417)
CCCCCCCCCCOC(=O)CCCN(CCO)CCCCCC(=O)OCC(CCCCCCCC)CCCCCCCC [YK-009, reference compound] | 16.0% | 189 nm | 27.52 µg/mL | 63.4% | 38.50 µg/mL | 5146376 RLU | 70.43% | 981240 | 705470 | 100560 | 9555 | 
CCCCCC(CC)OC(=O)CCCCCCCCN(CCO)CCN(CCO)CCCCCCCCC(=O)OC(CC)CCCCC (stereo not shown) [YK-404, di(octan-3-yl) 9, 9′-(ethane-1,2-diyl-bis((2-hydroxyethyl)azanediyl))dinonanoate] | 4.2% | 142 nm | 28.45 µg/mL | 75.3% | 33.41 µg/mL | 7543 RLU | 42.12% |  |  |  |  | 
CCCCCCCCCCOC(=O)CCCN(CCO)CCN(CCO)CCCCCC(=O)OC(CCCCCCCC)CCCCCCCC [YK-405, Heptadecan-9-yl 6-((2-hydroxyethyl)(2-((2-hydroxyethyl)(4-(decyloxy)-4-oxobutyl)amino)ethyl)amino)hexanoate] | 4.3% | 141 nm | 33.42 µg/mL | 83.2% | 40.19 µg/mL | 3197780 RLU | 41.86% |  |  |  |  | 
CCCCCCCCCCCOC(=O)CCCN(CCO)CCN(CCO)CCCCCCOC(=O)CC(CCCCCC)CCCCCC [YK-406, 6-((2-hydroxyethyl) (2-((2-hydroxyethyl)(4-(undecyloxy)-4-oxobutyl)amino)ethyl)amino)hexyl 3-hexylnonanoate] | 15.8% | 154 nm | 30.19 µg/mL | 87.8% | 34.41 µg/mL | 78251 RLU | 24.96% |  |  |  |  | 
CCCCCCCCCCOC(=O)CCCN(CCO)CCN(CCO)CCCC(=O)OC(CCCCCCCC)CCCCCCCC [YK-408, heptadecan-9-yl 4-((2-hydroxyethyl)(2-((2-hydroxyethyl)(4-(decyloxy)-4-oxobutyl)amino)ethyl)amino)butyrate] | 16.2% | 136 nm | 45.42 µg/mL | 86.6% | 52.46 µg/mL | 1474136 RLU | 42.31% |  |  |  |  | 
CCCCCCCCCCCOC(=O)CCCN(CCO)CCN(CCO)CCCCCC(=O)OCC(CCCCCCCC)CCCCCCCC [YK-409, 2-octyldecyl 6-((2-hydroxyethyl)(2-((2-hydroxyethyl)(4-(undecyloxy)-4-oxobutyl)amino)ethyl)amino) hexanoate] | 13.7% | 155 nm | 34.14 µg/mL | 86.9% | 39.27 µg/mL | 669807 RLU | 46.11% |  |  |  |  | 
CCCCCCCCCCOC(=O)CCCCCN(CCO)CCN(CCO)CCCCCC(=O)OCC(CCCCCCCC)CCCCCCCC [YK-410, 2-octyldecyl 6-((2-hydroxyethyl)(2-((2-hydroxyethyl)(6-(decyloxy)-6-oxohexyl)amino)ethyl)amino)hexanoate] | 15.5% | 163 nm | 29.48 µg/mL | 88.2% | 33.42 µg/mL | 407868 RLU | 44.92% |  |  |  |  | 
CCCCCCCCC(CCCCCCCC)C(=O)OCCCCCCN(CCO)CCCN(CCO)CCCCCCOC(=O)C(CCCCCCCC)CCCCCCCC [YK-412, (propane-1,3-diyl-bis((2-hydroxyethyl)azanediyl))-bis(hexane-6,1-diyl)bis(2-octyldecanoate)] |  |  |  |  |  | 3371352 RLU | 54.14% |  |  |  |  | 
CCCCCCCCCCCOC(=O)CCCN(CCO)CCCN(CCO)CCCCCC(=O)OC(CCCCCCCC)CCCCCCCC [YK-413, heptadecan-9-yl 6-((2-hydroxyethyl)(3-((2-hydroxyethyl)(4-oxo-4-(undecyloxy)butyl)amino)propyl)amino)hexanoate] | 16.1% | 160 nm | 23.63 µg/mL | 83.3% | 28.36 µg/mL | 1377048 RLU | 47.20% |  |  |  |  | 
CCCCCCCCCCOC(=O)CCCN(CCO)CCCN(CCO)CCCC(=O)OC(CCCCCCCC)CCCCCCCC [YK-414, decyl 4-(3-((4-(heptadecan-9-yloxy)-4-oxobutyl)(2-hydroxyethyl)amino)propyl)(2-hydroxyethyl)aminobutyrate] |  |  |  |  |  | 444089 RLU | 28.75% |  |  |  |  | 
CCCCCCCCCCCOC(=O)CCCN(CCO)CCCN(CCO)CCCCCC(=O)OCC(CCCCCCCC)CCCCCCCC [YK-415, 2-octyldecyl 6-((2-hydroxyethyl)(3-((2-hydroxyethyl)(4-oxo-4-(undecyloxy)butyl)amino)propyl)amino)hexanoate] | 15.6% | 178 nm | 31.08 µg/mL | 87.8% | 35.39 µg/mL | 298021 RLU | 61.16% | 117840 | 64501 | 15790 | 4041 | 
CCCCCCCCCCOC(=O)CCCCCN(CCO)CCCN(CCO)CCCCCC(=O)OCC(CCCCCCCC)CCCCCCCC [YK-416, decyl 6-((2-hydroxyethyl)(3-((2-hydroxyethyl)(6-((2-octyldecyl)oxy)-6-oxohexyl)amino)propyl)amino)hexanoate] | 19.7% | 190 nm | 25.16 µg/mL | 79.6% | 31.62 µg/mL | 3975264 RLU | 40.97% |  |  |  |  | 34
CCCCCCCCC(CCCCCCCC)OC(=O)CCCCCN(CCO)CCCCN(CCO)CCCCCC(=O)OC(CCCCCCCC)CCCCCCCC [YK-420, di(heptadecan-9-yl) 6,6′-(butane-1,4-diylbis((2-hydroxyethyl)azanediyl))dihexanoate] | 14.2% | 169 nm | 35.87 µg/mL | 94.9% | 37.81 µg/mL | 4019330 RLU | 35.59% |  |  |  |  | 
CCCCCCCCCCOC(=O)CCCN(CCO)CCCCN(CCO)CCCCCC(=O)OC(CCCCCCCC)CCCCCCCC [YK-421, heptadecan-9-yl 6-((4-((4-(decyloxy)-4-oxobutyl)(2-hydroxyethyl)amino)butyl)(2-hydroxyethyl)amino)hexanoate] | 17.4% | 148 nm | 33.93 µg/mL | 83.1% | 40.83 µg/mL | 466616 RLU | 35.71% |  |  |  |  | 
